Twelve molecules from patent US20250230193A1, “CYCLIC COMPOUND HAVING SELECTIVE KRAS INHIBITORY EFFECT ON HRAS AND NRAS” (CHUGAI SEIYAKU KABUSHIKI KAISHA, priority 2022, published 2025) can be followed below.

Test [1] concerns the target GDP-bound NRAS wild-type protein (Homo sapiens, UniProt P01111). Briefly: Binding to NRAS by surface plasmon resonance (SPR), Single Cycle Kinetics. The following applies: KD ratio NRAS/KRAS, SPR, GDP-bound wild-type proteins.
Test [2] concerns the target GDP-bound HRAS wild-type protein (Homo sapiens, UniProt P01112). Briefly: Binding to HRAS by surface plasmon resonance (SPR), Single Cycle Kinetics. The following applies: KD ratio HRAS/KRAS, SPR, GDP-bound wild-type proteins.

GDP-bound HRAS wild-type protein, sequence (P01112 whole entry): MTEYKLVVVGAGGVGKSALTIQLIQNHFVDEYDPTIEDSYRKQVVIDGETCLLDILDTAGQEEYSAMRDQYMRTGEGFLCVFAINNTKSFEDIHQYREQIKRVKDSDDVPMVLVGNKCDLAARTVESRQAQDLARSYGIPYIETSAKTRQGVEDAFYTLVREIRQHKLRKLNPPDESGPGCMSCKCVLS
GDP-bound NRAS wild-type protein, sequence (P01111 whole entry): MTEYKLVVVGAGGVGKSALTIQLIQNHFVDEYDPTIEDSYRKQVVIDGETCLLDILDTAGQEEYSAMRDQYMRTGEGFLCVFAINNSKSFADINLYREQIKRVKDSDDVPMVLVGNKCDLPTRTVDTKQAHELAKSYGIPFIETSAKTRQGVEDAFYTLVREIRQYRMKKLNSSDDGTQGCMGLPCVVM

For the molecule `CC[C@H](C)[C@@H]1NC(=O)[C@@H]2CCCc3ccc(cc3)C[C@@H](C(=O)N(C)CC(=O)N[C@@H](CCc3ccc(C(F)(F)F)c(OC)c3)C(=O)N3C[C@H](OC(C)C)C[C@H]3C(=O)NC3(CC(C)(C)C3)C(=O)N(C)[C@@H](C3CCCC3)C(=O)N(C)[C@H](C(=O)N(C)CC)CC(=O)N2C)N2CC/C=C\C[C@@H](C2=O)N(C)C(=O)CN(C)C1=O` [PP3084], in test [1], the “NRAS/KRAS (ratio of KD value with respect to GDP-bound NRAS wild-type protein to KD value with respect to KRAS)” value is “A (a compound having 10 or more and less than 20 is denoted as A)”. Further, the “HRAS/KRAS (ratio of KD value with respect to GDP-bound HRAS wild-type protein to KD value with respect to KRAS)” value in test [2] is “B (a compound having 3 or more and less than 10 is denoted as B)”.

For the molecule `CC[C@H](C)[C@@H]1NC(=O)[C@@H]2CCCc3ccc(cc3)C[C@@H](C(=O)N(C)CC(=O)N[C@@H](CCc3ccc(C(F)(F)F)c(OC)c3)C(=O)N3C[C@H](OC4CCC4)C[C@H]3C(=O)NC3(CC(C)(C)C3)C(=O)N(C)[C@@H](C3CCCC3)C(=O)N(C)[C@H](C(=O)N(C)CC)CC(=O)N2C)N2CC/C=C\C[C@@H](C2=O)N(C)C(=O)CN(C)C1=O` [PP3085], the “NRAS/KRAS (ratio of KD value with respect to GDP-bound NRAS wild-type protein to KD value with respect to KRAS)” value in test [1] is “A (a compound having 10 or more and less than 20 is denoted as A)”. In addition, the “HRAS/KRAS (ratio of KD value with respect to GDP-bound HRAS wild-type protein to KD value with respect to KRAS)” value in test [2] is “B (a compound having 3 or more and less than 10 is denoted as B)”.

As for `CC[C@H](C)[C@@H]1NC(=O)[C@@H]2CCCc3ccc(cc3)C[C@@H](C(=O)N(C)CC(=O)N[C@@H](CCc3ccc(C(F)(F)F)c(OC)c3)C(=O)N3C[C@H](OC4CCCC4)C[C@H]3C(=O)NC3(CC(C)(C)C3)C(=O)N(C)[C@@H](C3CCCC3)C(=O)N(C)[C@H](C(=O)N(C)CC)CC(=O)N2C)N2CC/C=C\C[C@@H](C2=O)N(C)C(=O)CN(C)C1=O` [PP3086], in test [1], the “NRAS/KRAS (ratio of KD value with respect to GDP-bound NRAS wild-type protein to KD value with respect to KRAS)” value is “B (a compound having 3 or more and less than 10 is denoted as B)”. Further, the “HRAS/KRAS (ratio of KD value with respect to GDP-bound HRAS wild-type protein to KD value with respect to KRAS)” value in test [2] was “B (a compound having 3 or more and less than 10 is denoted as B)”.

Take `CC[C@H](C)[C@@H]1NC(=O)[C@@H]2CCCc3ccc(cc3)C[C@@H](C(=O)N(C)CC(=O)N[C@@H](CCc3ccc(C(F)(F)F)c(OC)c3)C(=O)N3CC4(CC4)C[C@H]3C(=O)NC3(CC(C)(C)C3)C(=O)N(C)[C@@H](C3CCCC3)C(=O)N(C)[C@H](C(=O)N(C)CC)CC(=O)N2C)N2CC/C=C\C[C@@H](C2=O)N(C)C(=O)CN(C)C1=O` [PP3087]: the “NRAS/KRAS (ratio of KD value with respect to GDP-bound NRAS wild-type protein to KD value with respect to KRAS)” value in test [1] was “A (a compound having 10 or more and less than 20 is denoted as A)”. For the same molecule, the “HRAS/KRAS (ratio of KD value with respect to GDP-bound HRAS wild-type protein to KD value with respect to KRAS)” value in test [2] was “B (a compound having 3 or more and less than 10 is denoted as B)”.

Regarding `CCCO[C@@H]1C[C@H]2C(=O)NC3(CC(C)(C)C3)C(=O)N(C)[C@@H](C3CCCC3)C(=O)N(C)[C@H](C(=O)N(C)CC)CC(=O)N(C)[C@H]3CCCc4ccc(cc4)C[C@@H](C(=O)N(C)CC(=O)N[C@@H](CCc4ccc(C(F)(F)F)c(OC)c4)C(=O)N2C1)N1CC/C=C\C[C@@H](C1=O)N(C)C(=O)CN(C1CC1)C(=O)[C@H]([C@@H](C)CC)NC3=O` [PP3088], the “NRAS/KRAS (ratio of KD value with respect to GDP-bound NRAS wild-type protein to KD value with respect to KRAS)” value in test [1] was “B (a compound having 3 or more and less than 10 is denoted as B)”. In test [2], the “HRAS/KRAS (ratio of KD value with respect to GDP-bound HRAS wild-type protein to KD value with respect to KRAS)” value is “B (a compound having 3 or more and less than 10 is denoted as B)”.

On to `CCCO[C@@H]1C[C@H]2C(=O)NC3(CC(C)(C)C3)C(=O)N(C)[C@@H](C3CCCC3)C(=O)N(C)[C@H](C(=O)N(C)CC)CC(=O)N(C)[C@H]3CCCc4ccc(cc4)C[C@@H](C(=O)N(C)CC(=O)N[C@@H](CCc4ccc(Cl)c(Cl)c4)C(=O)N2C1)N1CC/C=C\C[C@@H](C1=O)N(C)C(=O)CN(C)C(=O)[C@H]([C@@H](C)CC)NC3=O` [PP3089], for which the “NRAS/KRAS (ratio of KD value with respect to GDP-bound NRAS wild-type protein to KD value with respect to KRAS)” value in test [1] is “B (a compound having 3 or more and less than 10 is denoted as B)”. Also, in test [2], the “HRAS/KRAS (ratio of KD value with respect to GDP-bound HRAS wild-type protein to KD value with respect to KRAS)” value was “B (a compound having 3 or more and less than 10 is denoted as B)”.

Take `CCO[C@@H]1C[C@H]2C(=O)N(C)C3(CC(C)(C)C3)C(=O)N(C)[C@@H](C3CCCC3)C(=O)N(C)[C@H](C(=O)N(C)C)CC(=O)N(C)[C@H]3CCCCCCc4ccc(cc4)C[C@@H](C(=O)N(C)CC(=O)N[C@@H](CCc4ccc(C(F)(F)F)c(OC)c4)C(=O)N2C1)N1CC/C=C\C[C@@H](C1=O)N(C)C(=O)CN(C)C(=O)[C@H]([C@@H](C)CC)NC3=O` [PP3090]: the “NRAS/KRAS (ratio of KD value with respect to GDP-bound NRAS wild-type protein to KD value with respect to KRAS)” value in test [1] was “A (a compound having 10 or more and less than 20 is denoted as A)”. For the same molecule, the “HRAS/KRAS (ratio of KD value with respect to GDP-bound HRAS wild-type protein to KD value with respect to KRAS)” value in test [2] is “B (a compound having 3 or more and less than 10 is denoted as B)”.

Consider `CCO[C@@H]1C[C@H]2C(=O)N(C)C3(CC(C)(C)C3)C(=O)N(C)[C@@H](C3CCCC3)C(=O)N(C)[C@H](C(=O)N(C)C)CC(=O)N(C)[C@H]3CCCCCc4ccc(cc4)C[C@@H](C(=O)N(C)CC(=O)N[C@@H](CCc4ccc(C(F)(F)F)c(OC)c4)C(=O)N2C1)N1CC/C=C\C[C@@H](C1=O)N(C)C(=O)CN(C)C(=O)[C@H]([C@@H](C)CC)NC3=O` [PP3091], for which, in test [1], the “NRAS/KRAS (ratio of KD value with respect to GDP-bound NRAS wild-type protein to KD value with respect to KRAS)” value is “A (a compound having 10 or more and less than 20 is denoted as A)”. The “HRAS/KRAS (ratio of KD value with respect to GDP-bound HRAS wild-type protein to KD value with respect to KRAS)” value in test [2] is “B (a compound having 3 or more and less than 10 is denoted as B)”.

In the case of `CCCO[C@@H]1C[C@H]2C(=O)NC3(CC(C)(C)C3)C(=O)N(C)[C@@H](C3CCCC3)C(=O)N(C)[C@H](C(=O)N(C)C)CC(=O)N(C)[C@H]3CCCCc4ccc(cc4)C[C@@H](C(=O)N(C)CC(=O)N[C@@H](CCc4ccc(Cl)c(Cl)c4)C(=O)N2C1)N1CC/C=C\C[C@@H](C1=O)N(C)C(=O)CN(C)C(=O)[C@H]([C@@H](C)CC)NC3=O` [PP3092], in test [1], the “NRAS/KRAS (ratio of KD value with respect to GDP-bound NRAS wild-type protein to KD value with respect to KRAS)” value is “A (a compound having 10 or more and less than 20 is denoted as A)”. Moreover, the “HRAS/KRAS (ratio of KD value with respect to GDP-bound HRAS wild-type protein to KD value with respect to KRAS)” value in test [2] is “A (a compound having 10 or more and less than 20 is denoted as A)”.

Turning to `CCCO[C@@H]1C[C@H]2C(=O)NC3(CC(C)(C)C3)C(=O)N(C)[C@@H](C3CCCC3)C(=O)N(C)[C@H](C(=O)N3CCCC3)CC(=O)N(C)[C@H]3CCCCc4ccc(cc4)C[C@@H](C(=O)N(C)CC(=O)N[C@@H](CCc4ccc(C(F)(F)F)c(OC)c4)C(=O)N2C1)N1CC/C=C\C[C@@H](C1=O)N(C)C(=O)CN(C)C(=O)[C@H]([C@@H](C)CC)NC3=O` [PP3094, (1S,7S,11R,13S,19S,22S,26S,29S,35S,37Z)-19-cyclopentyl-7-[2-[3-methoxy-4-(trifluoromethyl)phenyl]ethyl]-3,3′,3′,18,21,25,31,34-octamethyl-29-[(1S)-1-methylpropyl]-11-propoxy-22-(pyrrolidine-1-carbonyl)spiro[3,6,9,15,18,21,25,28,31,34,41-undecazapentacyclo[24.15.9.2^43,46.1^35,41.0^9,13]tripentaconta-37,43(52),44,46(51)-tetraene-16,1′-cyclobutane]-2,5,8,14,17,20,24,27,30,33,53-undecone], in test [1], the “NRAS/KRAS (ratio of KD value with respect to GDP-bound NRAS wild-type protein to KD value with respect to KRAS)” value is “A (a compound having 10 or more and less than 20 is denoted as A)”. Besides, in test [2], the “HRAS/KRAS (ratio of KD value with respect to GDP-bound HRAS wild-type protein to KD value with respect to KRAS)” value was “B (a compound having 3 or more and less than 10 is denoted as B)”.

As to `CCC[C@H]1C(=O)N[C@@H]([C@@H](C)CC)C(=O)N(C2CC2)CC(=O)N(C)[C@H]2C/C=C\CCN(C2=O)[C@@H](Cc2ccc(C(F)(F)F)cc2)C(=O)N(C)CC(=O)N[C@@H](CCc2ccc(C(F)(F)F)c(OC)c2)C(=O)N2C[C@H](OCC)C[C@H]2C(=O)N(C)C2(CCC2)C(=O)N(C)[C@@H](C2CCCC2)C(=O)N(C)[C@H](C(=O)N2CCCCC2)CC(=O)N1C` [PP3095, (2S,8S,12R,14S,20S,23S,27S,30S,36S,38Z)-20-cyclopentyl-32-cyclopropyl-12-ethoxy-8-[2-[3-methoxy-4-(trifluoromethyl)phenyl]ethyl]-4,16,19,22,26,35-hexamethyl-30-[(1S)-1-methylpropyl]-23-(piperidine-1-carbonyl)-27-propyl-2-[[4-(trifluoromethyl)phenyl]methyl]spiro[1,4,7,10,16,19,22,26,29,32,35-undecazatricyclo[34.5.1.0^10,14]dotetracont-38-ene-17,1′-cyclobutane]-3,6,9,15,18,21,25,28,31,34,42-undecone], the “NRAS/KRAS (ratio of KD value with respect to GDP-bound NRAS wild-type protein to KD value with respect to KRAS)” value in test [1] was “A (a compound having 10 or more and less than 20 is denoted as A)”. The “HRAS/KRAS (ratio of KD value with respect to GDP-bound HRAS wild-type protein to KD value with respect to KRAS)” value in test [2] is “A (a compound having 10 or more and less than 20 is denoted as A)”.

Consider `CCC[C@H]1C(=O)N[C@@H]([C@@H](C)CC)C(=O)N(C2CC2)CC(=O)N(C)[C@H]2C/C=C\CCN(C2=O)[C@@H](Cc2ccc(C(F)(F)F)cc2)C(=O)N(C)CC(=O)N[C@@H](CCc2ccc(C(F)(F)F)c(OC)c2)C(=O)N2C[C@H](OCC)C[C@H]2C(=O)N(C)C2(CCC2)C(=O)N(C)[C@@H](C2CCCC2)C(=O)N(C)[C@H](C(=O)N2CCCC2)CC(=O)N1C` [PP3097], for which, in test [1], the “NRAS/KRAS (ratio of KD value with respect to GDP-bound NRAS wild-type protein to KD value with respect to KRAS)” value is “A (a compound having 10 or more and less than 20 is denoted as A)”. The “HRAS/KRAS (ratio of KD value with respect to GDP-bound HRAS wild-type protein to KD value with respect to KRAS)” value in test [2] was “A (a compound having 10 or more and less than 20 is denoted as A)”.
